Measured values as given in paper PMC11211329, “Phage-encoded bismuth bicycles enable instant access to targeted bioactive peptides” (Communications Chemistry, 2024).
Values joined by “and” are separate entries in the source; they are usually repeats but may differ in a detail not shown here. Identical values can stand only once. Like-named read-outs stand apart in the source and are kept apart here. Peptide text beside a SMILES is read from it.

Assays:
[1] = system: naïve three-cysteine phage library; test: Plaque-forming assay, effect of bicyclisation reagent on phage infectivity; assay type: cell-based, M13 bacteriophage; settings: 120 μM, 5 min exposure
Method: bismuth(III). The reaction mixture was vortexed briefly once more and incubated at room […]
Modification with bismuth tripotassium dicitrate (gastrodenol)
Bismuth tripotassium dicitrate (gastrodenol) in ultrapure sterile water (50 mM) was added to the reduced phage solution while gently vortexing to a final volume of 1040 μL to obtain a final concentration of 120 μM bismuth(III). The reaction mixture was vortexed briefly once more and incubated at room temperature for 5 min.
Modification with sodium arsenite (NaAsO2)
Sodium arsenite (NaAsO2) in ultrapure sterile water (50 mM) was added to the reduced phage solution while gently vortexing to a final volume of 1040 μL to obtain a final concentration of 120 μM arsenic(III). The reaction mixture was vortexed briefly once more and incubated at room […]
An overnight culture of Escherichia coli ER2738 (New England Biolabs, E4104, USA), a strain commonly used for phage display, was prepared by growing the bacteria in tetracycline containing LB media at 37 °C for 16 h at 220 rpm. Aliquots of 3 mL of melted top agar were transferred into sterile polystyrene tubes (Corning, 352051, USA) and heated up to 50 °C on a dry bath (Thermo Fisher, 88870004, USA) until ready to use. A dilution series of the phage library was prepared as required, at a final volume of 1 mL, whereby a 10 μL portion of each phage dilution was added to 200 μL of the bacterial overnight culture, incubated for 5 min and transferred fully into a tube containing 3 mL top agar. The contents in the tube were gently mixed by vortexing and poured entirely on a warm LB/IPTG/X-Gal plate, allowing the top agar-mixture to spread evenly across the plate. The plate was allowed to solidify and left in an incubator oven overnight at 37 °C. The number of plaques was counted by selecting plates with plaques separated at a countable level.
The concentration of the original solution was then calculated in pfu/mL using the following equation (Supplementary Equation 1).
Supplementary Equation 1.
concentration of original phage library solution = number of plaques ∙ dilution factor [pfu/mL]
Effect of bicyclisation reagent on phage infectivity
To evaluate the impact of bismuth(III) and arsenic(III) on the infectivity of the naïve three-cysteine phage library, phage titres were measured both before and after the addition of the metal(loid).
Accordingly, for each modification experiment three 1000 μL aliquots of ~1011 pfu/mL of freshly amplified naïve phage library in PBS were set aside and subjected to a plaque-forming assay to determine their titre. Next, these library aliquots were individually exposed to either 120 μM bismuth(III) from BiBr3 (50 mM DMSO) or gastrodenol (50 mM in ultrapure water) or 120 μM arsenic(III) from NaAsO2 (50 mM in ultrapure water), with each reagent being used for the modification of three library aliquots. During addition of the thiophilic element, the reaction mixtures were briefly vortexed and incubated at room temperature for 5 min. Excess reagent was removed from the modified phage library solution using spin desalting columns (Thermo Fisher, 89883, USA) at 2000 × g for 2.5 min. The titre of the modified phage solution was subsequently determined using the plaque-forming assay, which was also performed in triplicate. A parallel experiment was conducted using the addition of PBS as the control. Phage titres before and after their respective modification were plotted in GraphPad Prism 10 (Dotmatics, USA) […]
Supplementary Fig. 20. […]

streptavidin = biological target: T1, streptavidin (Streptomyces avidinii, UniProt P22629); test: biochemical; assay type: binding
T1 construct: purchased New England Biolabs
Method: SPR measurements were performed with 20 mM HEPES–KOH pH 7.4, 150 mM NaCl, 0.5 mM TCEP, 0.05% (v/v) polysorbate 20 as running buffer. For each experiment, 100–150 μg streptavidin in 10 mM sodium acetate pH 3.9 buffer was freshly immobilised on a sensor chip flow-cell using EDC/NHS chemistry at 25 °C in absence of TCEP. All binding experiments were conducted at 20 °C in single-cycle kinetics mode (Fig. 4, Supplementary Figs. 17, 18, Supplementary Data 2).
SPR experiments were performed on a Biacore 8K (Cytiva, USA) using a CM5 chip (Cytiva, 29104988, USA), onto which streptavidin (New England Biolabs, USA) was freshly immobilised using an amine coupling kit (Cytiva, USA) for each individual experiment. The instrument was operated using Biacore Insight 5 software (Cytiva, USA). The data were plotted and analysed in GraphPad Prism 10 (Dotmatics, USA) using the non-linear fit ‘one site – specific binding’ (Supplementary Equation 2). KD values of duplicate measurements are represented as the mean value ± standard deviation.
Supplementary Equation 2.
X = analyte concentration [µM]
RUmax = maximum response [RU]
KD = dissociation constant [µM]

T1 sequence (P22629 25-183): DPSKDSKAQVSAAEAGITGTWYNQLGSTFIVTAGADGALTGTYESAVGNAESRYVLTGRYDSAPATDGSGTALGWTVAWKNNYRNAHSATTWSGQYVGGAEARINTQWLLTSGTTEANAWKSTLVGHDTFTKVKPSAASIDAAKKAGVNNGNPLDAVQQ

Question: With `[Bi+3]` [Bi(III)] as the compound, how does the “effect on phage infectivity” value [1] read?
Answer: uncompromised

Question: `O=C([O-])CC(O)(CC(=O)[O-])C(=O)[O-].O=C([O-])CC(O)(CC(=O)[O-])C(=O)[O-].[Bi+3].[K+].[K+].[K+]` [gastrodenol, bismuth tripotassium dicitrate] was tested. Which “effect on phage infectivity” value [1] did it give?
Answer: no relevant negative effect

Question: What does the source list for `C[C@H](N)C(=O)N[C@H]1C[S][Bi]2[S]C[C@@H](C(N)=O)NC(=O)[C@H](C)NC(=O)[C@H](C)NC(=O)[C@H](C)NC(=O)[C@H](CCC(=O)O)NC(=O)[C@H](C[S]2)NC(=O)[C@H](CCC(N)=O)NC(=O)[C@@H]2CCCN2C(=O)[C@H](Cc2c[nH]cn2)NC(=O)[C@@H]2CCCN2C1=O` [2b]?
Answer: affinity towards streptavidin (in words) (streptavidin; SPR): micromolar affinity; Response (streptavidin; SPR, 0.390625 μM peptide): 13.0345 RU and 9.7931 RU; Response (streptavidin; SPR, 0.78125 μM peptide): 13.307 RU and 10.0327 RU; Response (streptavidin; SPR, 1.5625 μM peptide): 13.7466 RU and 10.2315 RU; Response (streptavidin; SPR, 3.125 μM peptide): 15.583 RU and 11.4763 RU; Response (streptavidin; SPR, 6.25 μM peptide): 24.2151 RU and 19.0135 RU; Response (streptavidin; SPR, 12.5 μM peptide): 41.2334 RU and 33.5268 RU; Response (streptavidin; SPR, 25 μM peptide): 50.6436 RU and 38.7895 RU; Response (streptavidin; SPR, 50 μM peptide): 52.9652 RU and 37.872 RU; Response (streptavidin; SPR, 100 μM peptide): 63.2365 RU and 47.0629 RU; Kd (streptavidin; SPR, 20 °C, single-cycle kinetics, 1b, 2b, 3a, 4a n = 2 (mean ± SD), 2, 3, 3b, 4b n = 1): 7.4 µM; more active than linear counterpart (streptavidin; ratio of KD, bicycle vs linear peptide): approximately 200 times

Question: How did the Kd (streptavidin) turn out when `C[C@H](N)C(=O)N[C@@H](CS)C(=O)N[C@@H](Cc1c[nH]cn1)C(=O)N1CCC[C@H]1C(=O)N[C@@H](CCC(N)=O)C(=O)N[C@@H](CC(N)=O)C(=O)N[C@@H](CS)C(=O)N[C@H](C(=O)N[C@@H](CCC(=O)O)C(=O)N1CCC[C@H]1C(=O)N[C@@H](C)C(=O)N[C@@H](CS)C(N)=O)[C@@H](C)O` [compound 3] (H-ACHPQNCTEPAC-NH2) was run?
Answer: 927 µM

Question: What about the “affinity of linear versus bicyclic peptide (in words)” value (streptavidin; SPR) of the same compound?
Answer: two orders of magnitude lower affinity

Question: And the Response (streptavidin; SPR, 11.7188 μM peptide)?
Answer: 4.8115 RU

Question: What about the Response (streptavidin; SPR, 23.4375 μM peptide) of the same compound?
Answer: 6.9877 RU

Question: And the Response (streptavidin; SPR, 46.875 μM peptide)?
Answer: 10.9154 RU

Question: What about the Response (streptavidin; SPR, 93.75 μM peptide) of the same compound?
Answer: 18.7272 RU

Question: And the Response (streptavidin; SPR, 187.5 μM peptide)?
Answer: 34.0455 RU

Question: What about the Response (streptavidin; SPR, 375 μM peptide) of the same compound?
Answer: 61.2377 RU

Question: And the Response (streptavidin; SPR, 750 μM peptide)?
Answer: 109.838 RU

Question: And the Response (streptavidin; SPR, 1500 μM peptide)?
Answer: 163.522 RU

Question: What about the Response (streptavidin; SPR, 3000 μM peptide) of the same compound?
Answer: 172.646 RU

Question: For `[Br][Bi]([Br])[Br]` [BiBr3, bismuth tribromide], which “effect on phage infectivity” value [1] is on record?
Answer: no relevant negative effect

Question: With `O=[As][O-].[Na+]` [NaAsO2, sodium arsenite] as the compound, how does the “effect on phage infectivity” value [1] read?
Answer: no relevant negative effect

Question: What about the “effect on phage infectivity” value ([1]; listed as As(III)) of the same compound?
Answer: uncompromised

Question: For `C[C@H](N)C(=O)N[C@@H](CS)C(=O)N1CCC[C@H]1C(=O)N[C@@H](Cc1c[nH]cn1)C(=O)N1CCC[C@H]1C(=O)N[C@@H](CCC(N)=O)C(=O)N[C@@H](CS)C(=O)N[C@@H](CCC(=O)O)C(=O)N[C@@H](C)C(=O)N[C@@H](C)C(=O)N[C@@H](C)C(=O)N[C@@H](CS)C(N)=O` [compound 2] (H-ACPHPQCEAAAC-NH2), which Kd (streptavidin) is on record?
Answer: 1520 µM

Question: And the “affinity of linear versus bicyclic peptide (in words)” value (streptavidin; SPR)?
Answer: two orders of magnitude lower affinity

Question: And the Response (streptavidin; SPR, 15.625 μM peptide)?
Answer: 3.2958 RU

Question: What about the Response (streptavidin; SPR, 31.25 μM peptide) of the same compound?
Answer: 3.9468 RU

Question: What about the Response (streptavidin; SPR, 62.5 μM peptide) of the same compound?
Answer: 5.3014 RU

Question: And the Response (streptavidin; SPR, 125 μM peptide)?
Answer: 8.119 RU

Question: And the Response (streptavidin; SPR, 250 μM peptide)?
Answer: 13.0777 RU

Question: What about the Response (streptavidin; SPR, 500 μM peptide) of the same compound?
Answer: 20.3557 RU

Question: What about the Response (streptavidin; SPR, 1000 μM peptide) of the same compound?
Answer: 32.6253 RU

Question: What about the Response (streptavidin; SPR, 2000 μM peptide) of the same compound?
Answer: 47.8172 RU

Question: And the Response (streptavidin; SPR, 4000 μM peptide)?
Answer: 62.2756 RU
